Entries after “also recorded” stand apart in the source; their conditions may differ.
Assays:
[1] = system: mouse model of cerebral ischemia and reperfusion (stroke); assay type: in vivo
Description: In stroke and other ischemic disorders, there may be clinical benefit derived by lysing an existing thrombus, but there is also the potentially devastating complication of hemorrhage. In the current experiments, the mouse model of cerebral ischemia and reperfusion (stroke) was used. […]
Murine stroke model. Transient focal cerebral ischemia was induced in mice by intralumenal occlusion of the middle cerebral artery (45 minutes) and reperfusion (22 hrs) as previously reported ^7. Serial measurements of relative cerebral blood flow (CBF) were recorded via laser doppler flowmetry ^7, and infarct volumes (% ipsilateral hemisphere) determined by planimetric/volumetric analysis of triphenyl tetrazolium chloride (TTC)-stained serial cerebral sections ^7.
Preparation of Factor IXai ^13: Factor IXai was prepared by selectively modifying the active site histidine residue on Factor IXa, using dansyl-glu-gly-arg-chloromethylketone. Proplex was applied to a preparative column containing immobilized calcium-dependent monoclonal antibody to Factor IX. […] Purified Factor IXa was reacted with a 100-fold molar excess of dansyl-glu-gly-arg chloromethylketone, and the mixture dialyzed. […] IXai was subsequently frozen into aliquots at −80° C. until the time of use. For those experiments in which IXai was used, it was given as a single intravenous bolus at the indicated times and at the indicated doses.

[2] = system: platelet accumulation in ipsilateral hemisphere; experiment: 111Indium-platelet accumulation in stroke; assay type: in vivo, mouse; details: 300 μg/kg prior to occlusion, vs vehicle
Description: ^111Indium-platelet studies: Platelet accumulation was determined using ^111Indium labeled platlets, collected and prepared as previously described ^8. Immediately prior to surgery, mice were given 5×10^6 111In-labeled-platelets intravenously; deposition was quantified after 24 hours by as ipsilateral cpm/contralateral cpm.

cross-linked fibrin = experiment: Fibrin immunoblotting in stroke brain; assay type: in vivo, mouse; details: 300 μg/kg prior to stroke
Description: Fibrin immunoblotting/immunostaining. The accumulation of fibrin was measured following sacrifice (of fully heparinized animals) using immunoblotting/immunostaining procedures which have been recently described and validated ^9. Because fibrin is extremely insoluble, brain tissue extracts where prepared by plasmin digestion, then applied to a standard SDS-polyacrylamide gel for electrophoresis, followed by immunoblotting using a polyclonal rabbit anti-human antibody prepared to gamma-gamma chain dimers present in cross-linked fibrin which can detect murine fibrin, with relatively little cross-reactivity with fibrinogen ^10. Fibrin accumulation was reported as an ipsilateral to contralateral ratic. In additional experiments, brains were embedded in paraffin, sectioned, and immunostained using the same anti-fibrin antibody.

intracerebral hemorrhage = assay type: in vivo, mouse
Description: The hemoglobin content of brains subjected to the experimental procedures below was quantified using a spectrophotometric assay as follows. Whole brain tissue was obtained from freshly euthanized control or experimental animals, and each brain was treated individually as follows. Distilled water (250 μl) was added to each brain, followed by homogenization, for 30 sec (Brinkman Instruments, Inc., Westbury, N.Y.), sonification on ice with a pulse ultrasonicator for 1 minute (SmithKline Corporation, Collegeville, Pa.), and centrifugation at 13,000 rpm for 30 minutes (Baxter Scientific Products, Deerfield, Ill.). After collecting the hemoglobin-containing supernatant, 80 μl of Drabkin's reagent (purchased from Sigma Diagnostics, St. Louis, Mo; K3Fe(CN)6 200 mg/L, KCN 50 mg/L, NaHCO3 1 g/L, pH 8.6 ^25) was added to a 20 μl aliquot and allowed to stand for 15 minutes. This reaction converts hemoglobin to cyanomethemoglobin, which has an absorbance peak at 540 nm, and whose concentration can then be assesses by the optical density of the solution at ≈550 nm wavelength ^26. To validate that the measured absorbance following these procedures reflects the amount of hemoglobin, known quantities of bovine erythrocyte hemoglobin (Sigma, St. Louis, Mo.) were analyzed using similar procedures alongside every brain tissue assay. As an additional measure, blood was obtained from control mice by cardiac puncture following anesthesia. Incremental aliquots of this blood were then added to freshly homogenized brain tissue obtained from untreated mice to generate a standard absorbance curve.
Focal cerebral ischemia was produced in animals by transient right middle cerebral artery occlusion using a method previously described in detail ^28,29. Briefly, a heat-blunted 12 or 13 mm 5-0 or 6-0 gauge nylon suture was passed into the right internal carotid artery to the level of the middle cerebral artery. After 45 minutes, the occluding suture was removed to reestablish perfusion. Immediately following removal of the occluding suture, animals received either intravenous tissue plasminogen activator (10 mg/kg in 0.2 ml normal saline solution, Stroke+rt-PA) or normal saline solution (Stroke+Saline) given by dorsal penile vein injection. At 24 hours, brain tissue was harvested immediately after rapid anesthetized decapitation. […] The other half of each brain was immersed in saline for an identical duration, and then subjected to the procedures described above for the spectrophotometric hemoglobin assay.
The degree of ICH was first scored visually by a blinded observer. […] Sections were inspected by a blinded observer and brains were given an ICH score from a graded scale based on maximal hemorrhage diameter seen on any of the sections [ICH score 0, no hemorrhage; 1, <1 mm; 2, 1-2 mm; 3, >2-3 mm; 4, >3 mm]. Slices from each brain were then pooled, homogenized, and then treated according to the procedures described above for the spectrophotometric hemoglobin assay.
Spectrophotometric hemoglobin assay and visual ICH score: ICH was quantified by a spectrophotometric-based assay which we have developed and validated ^11,12. In brief, mouse brains were homogenized, sonicated, centrifuged, and methemoglobin in the supernatants converted (using Drabkin's reagent) to cyanomethemoglobin, the concentration of which was assessed by measuring O.D. at 550 nm against a standard curve generated with known amounts of hemoglobin. […]

Protime and APTT in mice = assay type: in vivo, mouse; details: 300 μg/kg, n=7
Source text: The potency of Factor IXai as an anticoagulant agent stems from the integral role of activated Factor IX in the coagulation cascade.

Factor IXa = target: T1, Factor IXa (Homo sapiens, UniProt P00740); experiment: Procoagulant activity of the prepared Factor IXai; assay type: biochemical; details: final product
T1 construct: made in house
T1 sequence (P00740 227-461 limits assumed): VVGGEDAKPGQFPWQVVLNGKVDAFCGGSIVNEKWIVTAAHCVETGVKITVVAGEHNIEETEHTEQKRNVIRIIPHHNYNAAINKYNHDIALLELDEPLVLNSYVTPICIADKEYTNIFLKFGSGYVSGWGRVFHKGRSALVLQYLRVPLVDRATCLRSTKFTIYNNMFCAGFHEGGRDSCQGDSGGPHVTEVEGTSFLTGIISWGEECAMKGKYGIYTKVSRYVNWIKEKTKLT
T1 sequence (P00740 47-191 partner limits assumed): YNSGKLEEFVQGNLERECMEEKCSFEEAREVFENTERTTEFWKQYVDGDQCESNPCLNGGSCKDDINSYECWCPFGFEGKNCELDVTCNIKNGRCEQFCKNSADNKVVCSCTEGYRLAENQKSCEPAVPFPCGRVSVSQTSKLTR
Description: Preparation of Factor IXai ^13: Factor IXai was prepared by selectively modifying the active site histidine residue on Factor IXa, using dansyl-glu-gly-arg-chloromethylketone. Proplex was applied to a preparative column containing immobilized calcium-dependent monoclonal antibody to Factor IX. The column was washed, eluted with EDTA-containing buffer, and Factor IX in the eluate (confirmed as a single band on SDS-PAGE) was then activated by applying Factor XIa (incubating in the presence of CaCl2). Purified Factor IXa was reacted with a 100-fold molar excess of dansyl-glu-gly-arg chloromethylketone, and the mixture dialyzed. […] This material (Factor IXai) was then used for experiments following filtration (0.2 μm) and chromatography on DeToxi-gel columns, to remove any trace endotoxin contamination (in sample aliquots, there was no detectable lipopolysaccharide). IXai was subsequently frozen into aliquots at −80° C. until the time of use. For those experiments in which IXai was used, it was given as a single intravenous bolus at the indicated times and at the indicated doses.

[3] = system: left circumflex coronary artery occlusion; details: dogs; cited from earlier work
mouse model of stroke = experiment: Mouse model of stroke, thrombolytic versus P-selectin antagonist; details: in vivo
Source text: The present invention provides for treatment of ischemic disorders by inhibiting the ability of the neutrophil, monocyte or other white blood cell to adhere properly. This may be accomplished removing the counter ligand, such as CD18. […] The endothelial cells on the surface of the vessels in the subject may also be a target for treatment. […] The present invention may be used in conjunction with a thrombolytic therapy to increase efficacy of such therapy or to enable lower doses of such therapy to be administered to the subject so as to reduce side effects of the thrombolytic therapy.

acute ischemic stroke = details: within 7 hours of stroke onset; cited from earlier work
stroke = details: within 2 hours of stroke; cited from earlier work
[4] = 300 μg/kg i.v. just prior to surgery, 24 hours
[5] = Table II, Experimental group mean

Factor IXai: Factor IXa with active site histidine modified by dansyl-glu-gly-arg-chloromethylketone; competitive inhibitor of Factor IXa
cerebral infarction volume ([1]; 300 μg/kg given after MCA occlusion, following removal of the occluding suture, vs vehicle): significantly reduce cerebral infarction volumes | cerebral infarct volume ([1]; 300 μg/kg i.v. immediately prior to stroke, vs controls): smaller infarct volumes; also recorded: reduce cerebral infarct volumes | mortality [1, 4]: reduced mortality | neurological deficits [1, 4]: less neurological deficits | inf vol [1, 5]: 3.47 | occ dop 1 [1, 5]: 0.16 | occ dop 2 [1, 5]: 0.43 | reper dop [1, 5]: 0.53 | sac dop ([1]; Table II, Experimental group mean, at sacrifice): 0.75 | dopp ([1]; Table II, Experimental group mean, baseline relative doppler flow): 1.04 | grade ([1]; Table II, Experimental group mean, neurological grade): 1.67 | optimal dose (infarct volume dose-response) ([1]; doses 300, 600, 1200 μg/kg immediately prior to stroke): 600 µg/kg | I/C Ratio ([1]; mouse, in vivo): 1.08 | cerebral blood flow / perfusion at 24 hours ([1]; mouse, in vivo, iv): improved cerebral perfusion; also recorded: significant increase in CBF | accumulation of radiolabelled platelets in the ipsilateral hemisphere [2]: significant reduction | ipsilateral accumulation of fibrin (immunoblot) (cross-linked fibrin): no apparent increase | apparent intracerebral hemorrhage (intracerebral hemorrhage; [4]): free of apparent intracerebral hemorrhage | ICH (spectrophotometric assay, corroborated by visual score) (intracerebral hemorrhage; highest dose tested, 1200 μg/kg): increase in ICH | ICH (spectrophotometric hemoglobin assay) (intracerebral hemorrhage; mouse, in vivo): no significant increase in ICH | APTT (Protime and APTT in mice): 79.9±8.9 | PT (protime) (Protime and APTT in mice): 13.4±0.7 | procoagulant activity (Factor IXa): devoid of procoagulant activity | activated partial thromboplastin time (APTT) [3]: did not prolong | progressive coronary artery occlusion after electric current [3]: effective at preventing progressive coronary artery occlusion

rt-PA: recombinant human tissue plasminogen activator, Genentech
increase of OD vs physiological saline solution (intracerebral hemorrhage; i.v. after reperfusion, 10 mg/kg): 1.8 fold | visual ICH score (intracerebral hemorrhage; stroke model, rt-PA after reperfusion): increase in the visual ICH score | hemorrhaging (mouse model of stroke): some visible hemorrhaging | stroke disorder (mouse model of stroke): improvement of the stroke disorder | rate of hemorrhagic conversion (acute ischemic stroke): 7-20% | reduction of infarct size (stroke): up to 77%
